{
  "source": "patent US20150238487A1",
  "about": "“NOVEL ERGOLINE DERIVATIVES AND USES THEREOF” (MAP Pharmaceuticals, Inc., priority 2012, published 2015)",
  "key": {"Adrenergic α2C": {"target": "T1, Adrenergic α2C (Homo sapiens, UniProt P18825)", "T1 construct": "expressed in transfected cells; host or cells: CHO-K1 (membrane extracts)", "T1 sequence (P18825 whole entry)": "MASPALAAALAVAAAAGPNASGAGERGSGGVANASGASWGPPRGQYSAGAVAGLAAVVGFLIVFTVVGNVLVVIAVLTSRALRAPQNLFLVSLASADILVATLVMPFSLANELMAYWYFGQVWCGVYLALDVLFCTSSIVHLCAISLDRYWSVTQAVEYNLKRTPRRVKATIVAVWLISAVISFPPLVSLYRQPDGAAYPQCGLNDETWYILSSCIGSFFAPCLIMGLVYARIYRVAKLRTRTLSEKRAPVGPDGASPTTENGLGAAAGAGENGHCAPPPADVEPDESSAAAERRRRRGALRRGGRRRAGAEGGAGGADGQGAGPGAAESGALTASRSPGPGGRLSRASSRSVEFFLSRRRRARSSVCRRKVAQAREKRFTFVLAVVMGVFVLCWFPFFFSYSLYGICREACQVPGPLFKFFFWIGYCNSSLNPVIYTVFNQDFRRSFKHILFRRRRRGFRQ", "assay": "GTPγ[35S] assay, Adrenergic α2C", "assay_type": "biochemical", "details": "antagonism, CHO-K1 membranes, read-out: Activity (Antagonism: IC50), Adrenergic a2C", "procedure": "(§1) Receptor […] activity assays were performed using 8′OH-2-CF3-dihydroergotamine (8′OH-2-CF3-DHE). Table 1 summarizes the cell lines (CHO-K1/HEK293 transfected with relevant human receptor) and the assays performed to detect any agonist or antagonist activity.\n(§2) GTPγS studies were conducted to monitor agonist activity for 8′OH-2CF3-dihydroergotamine (8′OH-2CF3-DHE) against the receptors indicated in Table 1 above. Reagents used were the following: Assay buffer (20 mM HEPES, pH 7.4; 100 mM NaCl; 10 μg/mL saponin; 30 mM MgCl2); Membranes (recombinant human receptor membrane extracts were thawed on ice and diluted in assay buffer to give 1000 μg/mL ([…]) and kept on ice); GDP (diluted in assay buffer to give 30 μM solution (3 μM final concentration); beads (PVT-WGA (Amersham, RPNQ001), diluted in assay buffer at 25 mg/mL (0.25 mg/10 μL)); GTPγ^35S (Perkin Elmer, NEG030X), diluted in assay buffer to give 0.1 nM (final concentration); and ligand (agonist/antagonist diluted in assay buffer).\n(§3) Membranes were mixed with GDP (1:1) and incubated for at least 15 minutes on ice. In parallel GTPγ^35S was mixed with the beads (1:1) just before starting the reaction. […] The plates were then centrifuged for 10 minutes at 2000 rpm and incubated at room temperature for 1 hour and counted for 1 min/well with a Perkin Elmer TopCount reader."}, "Opioid (OP1/OP2/OP3)": {"tested_on": "Opioid (OP1/OP2/OP3)", "assay": "GTPγ[35S] assay, Opioid receptors", "assay_type": "biochemical, human", "details": "CHO-K1 membranes", "procedure": "as §1, §2, §3"}, "Dopamine D1": {"target": "T2, Dopamine D1 (Homo sapiens, UniProt P21728)", "T2 construct": "expressed in transfected cells; host or cells: CHO-K1", "T2 sequence (P21728 whole entry)": "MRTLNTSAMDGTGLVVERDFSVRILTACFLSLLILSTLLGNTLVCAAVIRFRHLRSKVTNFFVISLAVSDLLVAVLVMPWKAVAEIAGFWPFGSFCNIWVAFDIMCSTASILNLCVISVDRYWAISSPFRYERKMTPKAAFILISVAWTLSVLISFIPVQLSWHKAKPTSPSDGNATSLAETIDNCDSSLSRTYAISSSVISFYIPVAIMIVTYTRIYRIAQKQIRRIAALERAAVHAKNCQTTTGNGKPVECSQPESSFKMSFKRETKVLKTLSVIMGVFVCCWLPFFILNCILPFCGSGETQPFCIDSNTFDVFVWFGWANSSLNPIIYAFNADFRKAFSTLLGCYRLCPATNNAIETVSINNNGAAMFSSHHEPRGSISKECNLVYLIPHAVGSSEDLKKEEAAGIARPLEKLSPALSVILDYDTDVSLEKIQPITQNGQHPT", "assay": "cAMP HTRF assay, Dopamine D1", "assay_type": "cell-based", "details": "CHO-K1, cAMP", "procedure": "as §1\n(§4) cAMP HTRF (Gs) studies were conducted to monitor activity for 8′OH-2CF3-dihydroergotamine (8′OH-2CF3-DHE) against the receptors indicated in Table 1 above. Cells expressing the human recombinant receptor of interest were grown in media without antibiotic and detached by gentle flushing with PBS-EDTA (5 mM EDTA), recovered by centrifugation and resuspended in assay buffer (KRH: 5 mM KCl, 1.25 mM MgSO4, 124 mM NaCl, 25 mM HEPES, 13.3 mM glucose, 1.25 mM KH2PO4, 1.45 mM CaCl2, 0.5 g/L BSA). Dose response curves were performed in parallel with the reference compounds. For agonist tests (96-well plates), 12 μL of cells was mixed with 12 μL of the test compound at increasing concentrations and then incubated for 30 minutes at room temperature. Lysis buffer was added and after a 1 hour incubation, cAMP concentrations was determined according to the manufacturer specification with the HTRF kit. […] Lysis buffer was added and after a 1 hour incubation, cAMP concentrations were determined according to the manufacturer specification, with the HTRF kit."}, "[1]": {"tested_on": "Glutamate (mG1u3/mG1u5/mG1u7)", "assay": "Glutamate receptor assays (Aequorin mGlu3/mGlu5, cAMP mGluR7)", "assay_type": "cell-based, human", "details": "Aequorin (mGluR3, mGluR5)", "procedure": "Receptor […] activity assays were performed using 8′OH-2-CF3-dihydroergotamine (8′OH-2-CF3-DHE). Table 1 summarizes the cell lines (CHO-K1/HEK293 transfected with relevant human receptor) and the assays performed to detect any agonist or antagonist activity. […]\nFor agonist testing, 30 μL of cell suspension was mixed with 30 μL of test or reference agonist in a 384-well plate. The resulting emission of light was recorded using Hamamatsu Functional Drug Screening System 6000 (FDSS 6000) luminometer. […] The resulting emission of light was recorded using Hamamatsu Functional Drug Screening System 6000 (FDSS 6000) luminometer.\ncAMP HTRF (Gi) studies were conducted to monitor activity for 8′OH-2CF3-dihydroergotamine (8′OH-2CF3-DHE) against the receptors indicated in Table 1 above. […] Lysis buffer was added and after a 1 hour incubation, cAMP concentrations was determined according to the manufacturer specification with the HTRF kit. […] Lysis buffer was added and after a 1 hour incubation, cAMP concentrations were determined according to the manufacturer specification, with the HTRF kit."}, "Calcitonin (AM1/AM2)": {"tested_on": "Calcitonin (AM1/AM2)", "assay": "cAMP HTRF assay, Calcitonin AM1/AM2", "assay_type": "cell-based, human", "details": "CHO-K1, cAMP", "procedure": "as §1, §4"}, "Serotonin 5-HT1F": {"target": "T3, Serotonin 5-HT1F (Homo sapiens, UniProt P30939)", "T3 construct": "expressed in transfected cells; host or cells: CHO-K1", "T3 sequence (P30939 whole entry)": "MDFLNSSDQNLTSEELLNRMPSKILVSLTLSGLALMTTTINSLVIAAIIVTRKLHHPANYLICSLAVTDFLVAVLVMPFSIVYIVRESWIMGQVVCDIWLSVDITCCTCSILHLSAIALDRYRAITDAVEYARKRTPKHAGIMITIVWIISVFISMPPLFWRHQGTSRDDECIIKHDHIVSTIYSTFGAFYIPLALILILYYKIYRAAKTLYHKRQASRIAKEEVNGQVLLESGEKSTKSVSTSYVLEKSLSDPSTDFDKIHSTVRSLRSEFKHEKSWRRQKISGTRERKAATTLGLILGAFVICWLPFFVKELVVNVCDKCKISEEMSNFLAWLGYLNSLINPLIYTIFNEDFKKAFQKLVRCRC", "assay": "cAMP HTRF assay, Serotonin 5-HT1F", "assay_type": "cell-based", "details": "CHO-K1, cAMP", "procedure": "as §1\nas §4, with “cAMP HTRF (Gi) studies were” for “cAMP HTRF (Gs) studies were”, “mixed with 6 μL of” for “mixed with 12 μL of”, “increasing concentrations and 6 μL of forskolin and then” for “increasing concentrations and then”"}, "Dopamine D2L": {"target": "T4, Dopamine D2L (Homo sapiens, UniProt P14416)", "T4 construct": "expressed in transfected cells; host or cells: CHO-K1 (membrane extracts)", "T4 sequence (P14416 whole entry)": "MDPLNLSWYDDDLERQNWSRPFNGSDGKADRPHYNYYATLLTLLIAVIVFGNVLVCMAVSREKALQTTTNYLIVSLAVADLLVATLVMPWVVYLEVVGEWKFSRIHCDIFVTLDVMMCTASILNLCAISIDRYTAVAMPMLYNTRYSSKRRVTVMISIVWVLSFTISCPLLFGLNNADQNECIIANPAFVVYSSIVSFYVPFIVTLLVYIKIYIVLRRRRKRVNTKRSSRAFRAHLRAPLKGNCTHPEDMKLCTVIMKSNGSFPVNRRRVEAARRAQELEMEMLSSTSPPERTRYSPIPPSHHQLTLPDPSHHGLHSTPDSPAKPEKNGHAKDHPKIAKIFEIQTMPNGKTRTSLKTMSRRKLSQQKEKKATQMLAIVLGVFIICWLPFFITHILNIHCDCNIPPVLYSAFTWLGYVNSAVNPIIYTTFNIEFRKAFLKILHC", "assay": "GTPγ[35S] assay, Dopamine D2L", "assay_type": "biochemical", "details": "agonism, CHO-K1 membranes", "procedure": "as §1, §2, §3"}},
  "note": "pEC50, pIC50: −log10 of the molar value.",
  "data": [
    {"smiles": "CN1C[C@H](C(=O)N[C@]2(C)O[C@@]3(O)[C@@H]4CC[C@@H](O)N4C(=O)[C@H](Cc4ccccc4)N3C2=O)C[C@@H]2c3cccc4[nH]c(C(F)(F)F)c(c34)C[C@H]21", "note": "[8′OH-2-CF3-DHE, 8′-Hydroxy-2-CF3-dihydroergotamine]", "values": [
      {"measurement": "pIC50", "setting": "Adrenergic α2C", "value": "< 5.00"},
      {"measurement": "Activity (Agonism: EC50; Antagonism: IC50), Opioid (OP1/OP2/OP3)", "setting": "Opioid (OP1/OP2/OP3)", "value": "Inactive"},
      {"measurement": "Activity (Agonism: EC50; Antagonism: IC50), D1", "setting": "Dopamine D1", "value": "Inactive"},
      {"measurement": "Activity (Agonism: EC50; Antagonism: IC50), Glutamate (mG1u3/mG1u5/mG1u7)", "setting": "[1]", "value": "Inactive"},
      {"measurement": "Activity (Agonism: EC50; Antagonism: IC50), Calcitonin (AM1/AM2)", "setting": "Calcitonin (AM1/AM2)", "value": "Inactive"},
      {"measurement": "Activity (Agonism: EC50; Antagonism: IC50), 5-HT1F", "setting": "Serotonin 5-HT1F", "value": "Inactive"},
      {"measurement": "pEC50", "setting": "Dopamine D2L", "value": 7.76}
    ]}
  ]
}
